Test results from the supplement of paper PMC13380429.

What was measured:
Settings in all cases: 72 h
U2OS [1] = assay: cell viability relative to DMSO; higher = less toxic
Caco-2 [2] = assay: as above
Vero E6 [3] = assay: as above
HepG2 [4] = assay: as above
Calu-3 [5] = assay: as above
U2OS [6] = assay: relative viability EC50 (midpoint between 100% and the lowest measured viability); higher = less toxic
Caco-2 [7] = assay: as above
Vero E6 [8] = assay: as above
HepG2 [9] = assay: as above
Calu-3 [10] = assay: as above
U2OS [11] = assay: drug sensitivity score (DSS) for viability; higher = more toxic; extreme values may be limits of the assay
Caco-2 [12] = assay: as above
Vero E6 [13] = assay: as above
HepG2 [14] = assay: as above
Calu-3 [15] = assay: as above

Structure (SMILES)	cell viability (U2OS [1]; 1 nM)	cell viability (U2OS [1]; 10 nM)	cell viability (U2OS [1]; 100 nM)	cell viability (U2OS [1]; 1000 nM)	cell viability (U2OS [1]; 10000 nM)	cell viability (Caco-2 [2]; 1 nM)	cell viability (Caco-2 [2]; 10 nM)	cell viability (Caco-2 [2]; 100 nM)	cell viability (Caco-2 [2]; 1000 nM)	cell viability (Caco-2 [2]; 10000 nM)	cell viability (Vero E6 [3]; 1 nM)	cell viability (Vero E6 [3]; 10 nM)	cell viability (Vero E6 [3]; 100 nM)	cell viability (Vero E6 [3]; 1000 nM)	cell viability (Vero E6 [3]; 10000 nM)	cell viability (HepG2 [4]; 1 nM)	cell viability (HepG2 [4]; 10 nM)	cell viability (HepG2 [4]; 100 nM)	cell viability (HepG2 [4]; 1000 nM)	cell viability (HepG2 [4]; 10000 nM)	cell viability (Calu-3 [5]; 1 nM)	cell viability (Calu-3 [5]; 10 nM)	cell viability (Calu-3 [5]; 100 nM)	cell viability (Calu-3 [5]; 1000 nM)	cell viability (Calu-3 [5]; 10000 nM)	relative viability EC50 (U2OS [6])	relative viability EC50 (Caco-2 [7])	relative viability EC50 (Vero E6 [8])	relative viability EC50 (HepG2 [9])	relative viability EC50 (Calu-3 [10])	drug sensitivity score (U2OS [11])	drug sensitivity score (Caco-2 [12])	drug sensitivity score (Vero E6 [13])	drug sensitivity score (HepG2 [14])	drug sensitivity score (Calu-3 [15])
O=C(/C=C/c1ccc(O)c(O)c1)O[C@H](Cc1ccc(O)c(O)c1)C(=O)O [rosmarinic-acid]	101%	103%	94.8%	104%	98.6%	91.5%	102%	87.7%	99.1%	88%	102%	103%	99.1%	96.4%	99.6%	98.8%	111%	106%	96.7%	102%	105%	109%	101%	88.5%	94.5%	> 10 µM	> 10 µM	> 10 µM	> 10 µM	> 10 µM	0	0	0	0	0.4
OC[C@@H](O)[C@@H](O)[C@@H](O)CO [ribitol]	98.9%	96.2%	97.4%	93%	102%	100%	97%	104%	102%	103%	93.7%	100%	97.8%	99.2%	101%	101%	90.9%	111%	100%	105%	102%	93%	98.1%	96.6%	98%	> 10 µM	> 10 µM	> 10 µM	> 10 µM	> 10 µM	0	0	0	0	0
Nc1ncnc2c1ncn2C1CCCO1 (stereo not given)	97.4%	98.9%	94.8%	99.4%	98.9%	104%	107%	99.7%	90.2%	91.7%	95.6%	102%	101%	98.8%	100%	98.7%	94.8%	103%	93.9%	103%	106%	102%	94.1%	102%	102%	> 10 µM	> 10 µM	> 10 µM	> 10 µM	> 10 µM	0	0	0	0	0
O=C1NC(c2cccc([N+](=O)[O-])c2)=CCN1c1ccccc1O [icilin]	95.5%	103%	98.3%	103%	104%	93.4%	102%	97.6%	99.2%	100%	91.9%	94.3%	94%	94.9%	106%	94.3%	93.4%	103%	98%	101%	97.4%	94.1%	93.7%	108%	108%	> 10 µM	> 10 µM	> 10 µM	> 10 µM	> 10 µM	0	0	0	0	0
COc1ccc(-c2cc(C(F)F)nn2-c2ccc(S(N)(=O)=O)cc2)cc1F [deracoxib]	91.3%	90.2%	93.7%	88.7%	107%	99.9%	93.5%	98.1%	98.6%	102%	97.3%	99.7%	94.2%	101%	98.8%	96.4%	112%	90.5%	89.7%	86.5%	100%	93.8%	104%	93.3%	109%	> 10 µM	> 10 µM	> 10 µM	> 10 µM	> 10 µM	0	0	0	1.5	0
CCCCCCCCCCCCCCCCCC(=O)OC[C@@H](O)[C@H]1OC[C@H](O)[C@H]1O [sorbitan-monostearate]	102%	102%	101%	107%	99.9%	92.1%	104%	87.4%	100%	98.7%	99.5%	102%	97.2%	100%	101%	93.7%	89.2%	98.7%	102%	108%	101%	92.9%	94.1%	108%	101%	> 10 µM	> 10 µM	> 10 µM	> 10 µM	> 10 µM	0	0	0	0	0
CCCN1CCCC[C@H]1C(=O)Nc1c(C)cccc1C [ropivacaine]	96.6%	97.9%	92.2%	99%	97.4%	90.8%	101%	92.6%	102%	95.3%	103%	103%	98.3%	98.7%	98.1%	96.5%	96.7%	89.2%	95.6%	99.4%	107%	106%	90.7%	103%	97.5%	> 10 µM	> 10 µM	> 10 µM	> 10 µM	> 10 µM	0	0	0	0	0
COc1ccc(C2CC(c3ccccc3)=NN2c2ccc(S(N)(=O)=O)cc2)cc1 (stereo not given) [ML141]	102%	110%	93.3%	108%	94%	94.9%	95.2%	97.6%	97.8%	80.7%	112%	103%	109%	95.9%	102%	106%	102%	102%	104%	94.8%	85.8%	105%	105%	110%	104%	> 10 µM	> 10 µM	> 10 µM	> 10 µM	> 10 µM	0	0.8	0	0	0
COc1cccc2c1C(=O)c1c(O)c3c(c(O)c1C2=O)C[C@@](O)(C(C)=O)C[C@@H]3O[C@H]1C[C@H](N)[C@H](O)[C@H](C)O1 [daunorubicin]	96.6%	103%	80.9%	2.4%	0.1%	86.3%	93.4%	74.6%	29.8%	28%	93.7%	97.8%	87.9%	54.3%	4.6%	108%	75.8%	43.3%	2%	0.2%	99.7%	96%	69.3%	29.4%	16.1%	0.187 µM	0.145 µM	0.963 µM	0.059 µM	0.177 µM	20.7	15.8	10.8	25.7	16.9
CN1C(=O)N(c2cc(Cl)cc(Cl)c2)C(=O)[C@@]1(C)Cc1ccc(Br)cc1 [BIRT-377]	98.1%	100%	95.2%	99.2%	88.8%	101%	98%	97.9%	102%	83.4%	98.7%	96.8%	104%	95.3%	101%	105%	101%	104%	86.6%	103%	98.4%	92.8%	91.1%	105%	92.7%	> 10 µM	> 10 µM	> 10 µM	> 10 µM	> 10 µM	0	0.3	0	0	0
CC(C)(C)c1ccc2cc(C#N)c(C#N)cc2c1 [BRD9876]	101%	106%	95.6%	99.8%	94.9%	99%	98.6%	102%	96%	89%	98.5%	104%	99.2%	99.4%	97.8%	97.7%	98.8%	90.7%	89.9%	97.6%	103%	100%	90.2%	95.8%	85.9%	> 10 µM	> 10 µM	> 10 µM	> 10 µM	> 10 µM	0	0.1	0	0	0.2
